Ends that are not written are not given here.
Test system: CT-26/KITENIN-V5 tumours
Test: Syngeneic subcutaneous tumour model, CT-26/KITENIN-V5 cells in BALB/c mice
Type: in vivo, mouse
Details: CT-26/KITENIN-V5, KDIP 1 and 5 mg/kg intravenously every other day for 2 weeks, dose dependent
Description: The CT‐26 cell/syngeneic mouse model was used to investigate the in vivo effects of KDIP on colorectal tumourigenesis, as it is reported that a syngeneic mouse tumour model is good for testing the anticancer effects of candidate substances.[25], [26] Male Balb/c mice (5‐week old) were purchased from DaMul Science, Korea and acclimated for 1 week prior to subcutaneous injection of syngeneic CT‐26/EV (3 × 10^6) or CT‐26/KITENIN cells (1 × 10^6) into the dorsum. Tumour volume was calculated using the following equation: V = 1/2 × a × b […], where a and b are the longest and shortest diameters of the tumour (in millimetres), respectively. Tumour volume was measured every other day for 14 days to verify the effects of KDIP. […]
Effect of KAI1 C‐terminal interacting tetraspanin (KITENIN) dimerization‐interfering peptide (KDIP) on tumour growth and metastasis in in vivo mouse model of colorectal cancer (CRC). […] For the evaluation of metastasis, total fluorescence emitted from liver nodules expressing iRFP was measured and counted (left panel) or metastatic tumour growth was counted as nodules that migrated to the surface of the liver, and a metastatic score was obtained by multiplying it with size (middle panel). Metastatic score or total fluorescence is represented as mean ± SEM. […]

With YARVRRRGPRRWRLVSDEAV [KDIP] as the sequence, how does the “tumour volume (in words)” value read?
The value was “significantly reduced”.
